Among the data in US20230101747A1 (Schrödinger, Inc., priority 2019, published 2023) are IC50 values, retold here.

This assay has as its target T1, Full length human CDC7 protein co-expressed with DBF4 (Homo sapiens, UniProt O00311).
T1 construct: Full length human CDC7 protein co-expressed with DBF4; purchased SignalChem (China)
Nature of the assay: CDC7 kinase biochemical assay (ADP-Glo, PDKtide substrate). The settings on record: 10 uM PDKtide, 4 h. The procedure:
CDC7 Kinase Biochemical Assay Protocol:
Full length human CDC7 protein co-expressed with DBF4 was purchased from SignalChem (China). CDC7 kinase activity was determined with PDKtide (SignalChem) as a substrate and by measuring ADP production using the ADP-Glo™ Kinase Assay kit (Promega) following the manufacturers instructions. The kinase reaction was performed using the following conditions: Buffer: 40 mM Tris pH 7.5, 20 mM MgCl2, 0.1 mg/ml BSA and 50 uM DTT. Final reaction mix contained 0.1 nM CDC7/DBF4, 1 uM ATP and 10 uM PDKtide. The kinase reaction time was 4 h. The ADP-Glo signal was measured using an EnVision plate reader (PerkinELmer).
Percent inhibition of CDC7 kinase activity was calculated based on the following formula: […]
SSample: the signal of compounds SHigh ctrl: the signal of high control (DMSO) SLow Ctrl: the signal of low control (positive control CDC7 inhibitor)
(In general: ADP-Glo first removes unused ATP, then detects ADP through luciferase.)

Where [1] appears, read: 0.1 nM CDC7/DBF4, 1 uM ATP, read-out: CDC7 ADP-Glo PDKtide IC50.

Read-outs that look alike come from different tables or passages of the source.

T1 sequence (O00311 whole entry): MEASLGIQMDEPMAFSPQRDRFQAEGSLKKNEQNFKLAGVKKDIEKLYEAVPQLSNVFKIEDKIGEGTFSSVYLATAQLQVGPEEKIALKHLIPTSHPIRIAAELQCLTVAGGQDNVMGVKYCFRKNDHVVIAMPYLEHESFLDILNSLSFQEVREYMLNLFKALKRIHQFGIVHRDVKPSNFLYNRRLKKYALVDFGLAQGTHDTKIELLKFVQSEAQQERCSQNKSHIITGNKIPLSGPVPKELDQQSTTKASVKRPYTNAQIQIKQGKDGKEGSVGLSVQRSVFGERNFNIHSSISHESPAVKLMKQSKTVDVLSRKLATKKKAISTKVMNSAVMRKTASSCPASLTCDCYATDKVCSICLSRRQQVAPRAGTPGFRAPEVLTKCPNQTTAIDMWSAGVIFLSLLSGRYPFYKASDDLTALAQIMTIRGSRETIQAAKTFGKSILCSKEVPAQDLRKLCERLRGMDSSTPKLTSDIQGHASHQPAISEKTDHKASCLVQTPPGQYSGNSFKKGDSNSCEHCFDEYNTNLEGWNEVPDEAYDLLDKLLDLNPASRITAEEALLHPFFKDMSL
T1 sequence (Q9UBU7 whole entry partner): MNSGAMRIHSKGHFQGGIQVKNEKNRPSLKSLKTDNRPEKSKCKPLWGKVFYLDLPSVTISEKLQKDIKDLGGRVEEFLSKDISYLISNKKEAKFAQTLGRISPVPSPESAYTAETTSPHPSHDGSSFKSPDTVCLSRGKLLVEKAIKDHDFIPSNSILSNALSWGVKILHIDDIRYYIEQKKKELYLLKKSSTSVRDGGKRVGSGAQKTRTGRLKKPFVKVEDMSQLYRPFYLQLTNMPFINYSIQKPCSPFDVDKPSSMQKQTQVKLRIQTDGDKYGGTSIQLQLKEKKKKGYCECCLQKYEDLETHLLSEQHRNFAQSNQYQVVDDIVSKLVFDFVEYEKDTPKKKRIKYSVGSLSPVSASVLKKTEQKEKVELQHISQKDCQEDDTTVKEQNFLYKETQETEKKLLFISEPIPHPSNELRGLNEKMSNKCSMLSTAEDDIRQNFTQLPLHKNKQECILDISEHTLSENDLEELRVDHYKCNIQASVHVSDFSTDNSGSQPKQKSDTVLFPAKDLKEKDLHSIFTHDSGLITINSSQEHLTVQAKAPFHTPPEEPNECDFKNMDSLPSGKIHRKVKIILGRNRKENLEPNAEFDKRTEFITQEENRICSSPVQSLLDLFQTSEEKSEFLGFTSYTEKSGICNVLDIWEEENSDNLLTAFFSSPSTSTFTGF

The term IC50 denotes the point on the concentration scale where inhibition reaches its midpoint. Consider `N#CC[C@@H]1CNC(=O)c2sc(-c3cn[nH]c3)c3c2N1CCC3` [Compound 97, (R)-2-(9-oxo-2-(1H-pyrazol-4-yl)-4,5,6,7,8,9-hexahydro-3H-1-thia-5a,8-diazabenzo[cd]azulen-6-yl)acetonitrile], for which, under setting [1], the IC50 is under 1 nM. As to `O=C1NC(C2CCCCO2)CN2CCCc3c(-c4cn[nH]c4)sc1c32` (single isomer, unassigned) [Compound 107], the IC50 under setting [1] is under 1 nM. Same read-out and setting: the same measure for `O=C1NC(C2CCCCO2)CN2CCCc3c(-c4cn[nH]c4)sc1c32` (single isomer, unassigned) [Compound 110]: under 1 nM; for `CC1(C)NC(=O)c2sc(-c3ccnc4ccoc34)c3c2N1CCO3` [Compound 7, 2-(furo[3,2-b]pyridin-7-yl)-6,6-dimethyl-4,5,6,7-tetrahydro-8H-3-oxa-1-thia-5a,7-diazaacenaphthylen-8-one]: over 10 nM. `Cc1cnn(C[C@@H]2CNC(=O)c3sc(-c4cn[nH]c4)c4c3N2CCO4)c1` [Compound 63, (S)-6-((4-methyl-1H-pyrazol-1-yl)methyl)-2-(1H-pyrazol-4-yl)-4,5,7,8-tetrahydro-3-oxa-1-thia-5a,8-diazabenzo[cd]azulen-9(6H)-one]: under setting [1], the half-maximal inhibitory concentration (IC50) is 1 to 10 nM.

For the compound `COC[C@@H]1CNC(=O)c2sc(-c3cn[nH]c3)c3c2N1CC(F)(F)O3` [Compound 133, (S)-4,4-difluoro-6-(methoxymethyl)-2-(1H-pyrazol-4-yl)-4,5,7,8-tetrahydro-3-oxa-1-thia-5a,8-diazabenzo[cd]azulen-9(6H)-one], the IC50 under setting [1] was under 1 nM. Regarding `CC1(C)NC(=O)c2sc(-c3c[nH]c4ncccc34)c3c2N1CCO3` [Compound 9, 6,6-dimethyl-2-(1H-pyrrolo[2,3-b]pyridin-3-yl)-4,5,6,7-tetrahydro-8H-3-oxa-1-thia-5a,7-diazaacenaphthylen-8-one], the IC50 under setting [1] lay within 1 to 10 nM. On the same count and under the same terms, the same measure for `O=C1N[C@H](CN2CCOCC2)CN2CC(F)(F)Cc3c(-c4cn[nH]c4)sc1c32` [Compound 134, (R)-4,4-difluoro-7-(morpholinomethyl)-2-(1H-pyrazol-4-yl)-4,5,7,8-tetrahydro-3H-1-thia-5a,8-diazabenzo[cd]azulen-9(6H)-one]: 1 to 10 nM; for `CNC[C@H]1CN2CCOc3c(-c4cn[nH]c4)sc(c32)C(=O)N1` [Compound 47, (S)-7-((methylamino)methyl)-2-(1H-pyrazol-4-yl)-4,5,7,8-tetrahydro-3-oxa-1-thia-5a,8-diazabenzo[cd]azulen-9(6H)-one]: under 1 nM. With `CNC[C@H]1CNC(=O)c2sc(-c3cn[nH]c3)c3c2N1CCO3` [Compound 37, (S)-6-((methylamino)methyl)-2-(1H-pyrazol-4-yl)-4,5,7,8-tetrahydro-3-oxa-1-thia-5a,8-diazabenzo[cd]azulen-9(6H)-one], the IC50 under setting [1] was under 1 nM. Consider `COC(=O)C[C@@H]1CNC(=O)c2sc(-c3cn[nH]c3)c3c2N1CCO3` [Compound 60, methyl (R)-2-(9-oxo-2-(1H-pyrazol-4-yl)-4,5,6,7,8,9-hexahydro-3-oxa-1-thia-5a,8-diazabenzo[cd]azulen-6-yl)acetate], for which, under setting [1], the IC50 fell in the range of 1 to 10 nM. On the same count and under the same terms, the same measure for `CC1(C)NC(=O)c2sc(-c3ccnc4[nH]ccc34)c3c2N1CCO3` [Compound 14, 6,6-dimethyl-2-(1H-pyrrolo[2,3-b]pyridin-4-yl)-4,5,6,7-tetrahydro-8H-3-oxa-1-thia-5a,7-diazaacenaphthylen-8-one]: 1 to 10 nM. As to `O=C1NC[C@H](CN2CCC2)N2CCOc3c(-c4cn[nH]c4)sc1c32` [Compound 36, (R)-6-(azetidin-1-ylmethyl)-2-(1H-pyrazol-4-yl)-4,5,7,8-tetrahydro-3-oxa-1-thia-5a,8-diazabenzo[cd]azulen-9(6H)-one], the IC50 under setting [1] lay in the range of 1 to 10 nM. On the same count and under the same terms, the same measure for `O=C1NC[C@@H](CO)N2CCOc3c(-c4cn[nH]c4)sc1c32` [Compound 34, (S)-6-(hydroxymethyl)-2-(1H-pyrazol-4-yl)-4,5,7,8-tetrahydro-3-oxa-1-thia-5a,8-diazabenzo[cd]azulen-9(6H)-one]: under 1 nM; for `CC(C)(O)C[C@@H]1CN2CC(F)(F)Oc3c(-c4cn[nH]c4)sc(c32)C(=O)N1` [Compound 117, (R)-4,4-difluoro-7-(2-hydroxy-2-methylpropyl)-2-(1H-pyrazol-4-yl)-4,5,7,8-tetrahydro-3-oxa-1-thia-5a,8-diazabenzo-[cd]azulen-9(6H)-one]: under 1 nM.

In turn, `O=C1N[C@H](C2CCC2)CN2C(=O)COc3c(-c4cn[nH]c4)sc1c32` [Compound 21, (R)-7-cyclobutyl-2-(1H-pyrazol-4-yl)-7,8-dihydro-3-oxa-1-thia-5a,8-diazabenzo[cd]azulene-5,9(4H,6H)-dione] came in with an IC50 (CDC7 ADP-Glo PDKtide IC50, 0.1 nM CDC7/DBF4, 1 uM ATP) of 1 to 10 nM. As to `CC1(C)NC(=O)c2sc(-c3cn[nH]c3)c3c2N1CCO3` [Compound 12, 6,6-dimethyl-2-(1H-pyrazol-4-yl)-4,5,6,7-tetrahydro-8H-3-oxa-1-thia-5a,7-diazaacenaphthylen-8-one], under setting [1], the half-inhibitory concentration (IC50) was under 1 nM. Still for that read-out and setting: with `O=C1N[C@H](C2CCC2)CN2CCOc3c(-c4ccncc4)sc1c32` [Compound 106, (R)-7-cyclobutyl-2-(pyridin-4-yl)-4,5,7,8-tetrahydro-3-oxa-1-thia-5a,8-diazabenzo[cd]azulen-9(6H)-one] the figure was under 1 nM; with `O=C1NC(C2CCCCO2)CN2CCCc3c(-c4cn[nH]c4)sc1c32` (single isomer, unassigned) [Compound 108], under 1 nM; with `O=C1NC[C@@H](CN2CCC2)N2CCOc3c(-c4cn[nH]c4)sc1c32` [Compound 46, (S)-6-(azetidin-1-ylmethyl)-2-(1H-pyrazol-4-yl)-4,5,7,8-tetrahydro-3-oxa-1-thia-5a,8-diazabenzo[cd]azulen-9(6H)-one], 1 to 10 nM.

Regarding `O=C1NC(C2CC(F)(F)C2)CN2CCOc3c(-c4cn[nH]c4)sc1c32` (single isomer, unassigned) [Compound 111, (R or S)-7-(3,3-difluorocyclobutyl)-2-(1H-pyrazol-4-yl)-4,5,7,8-tetrahydro-3-oxa-1-thia-5a,8-diazabenzo[cd]azulen-9(6H)-one], under setting [1], the IC50 was under 1 nM.

As for `O=C1NCC(C2CCOCC2)N2CCOc3c(-c4cn[nH]c4)sc1c32` (centres unmarked) [Compound 26, 2-(1H-pyrazol-4-yl)-6-(tetrahydro-2H-pyran-4-yl)-4,5,7,8-tetrahydro-3-oxa-1-thia-5a,8-diazabenzo[cd]azulen-9(6H)-one], the IC50 under setting [1] is under 1 nM. Still for that read-out and setting: with `O=C1NC(C2CC(F)(F)C2)CN2CCOc3c(-c4cn[nH]c4)sc1c32` (single isomer, unassigned) [Compound 112, (S or R)-7-(3,3-difluorocyclobutyl)-2-(1H-pyrazol-4-yl)-4,5,7,8-tetrahydro-3-oxa-1-thia-5a,8-diazabenzo[cd]azulen-9(6H)-one] the figure was under 1 nM; with `C[C@@H]1CNC(=O)c2sc(-c3ccncc3)c3c2N1C(=O)CO3` [Compound 22, (R)-6-methyl-2-(pyridin-4-yl)-7,8-dihydro-3-oxa-1-thia-5a,8-diazabenzo[cd]azulene-5,9(4H,6H)-dione], 1 to 10 nM; with `CC1(C)NC(=O)c2sc(-c3ccncc3)c3c2N1CCO3` [Compound 2, 6,6-dimethyl-2-(pyridin-4-yl)-4,5,6,7-tetrahydro-8H-3-oxa-1-thia-5a,7-diazaacenaphthylen-8-one], under 1 nM. The same measure, in the same setting: the same measure for `O=C1N[C@H](C2CCCCO2)CN2CC(F)(F)Cc3c(-c4cn[nH]c4)sc1c32` (single isomer, unassigned) [Compound 137]: over 10 nM. On the same count and under the same terms, the same measure for `C[C@H]1CN2C(=O)CCc3c(-c4cn[nH]c4)sc(c32)C(=O)N1` [Compound 29, (S)-7-methyl-2-(1H-pyrazol-4-yl)-3,4,7,8-tetrahydro-5H-1-thia-5a,8-diazabenzo[cd]azulene-5,9(6H)-dione]: 1 to 10 nM; for `COC[C@H]1CNC(=O)c2sc(-c3cn[nH]c3)c3c2N1CCC3` [Compound 88, (R)-6-(methoxymethyl)-2-(1H-pyrazol-4-yl)-4,5,7,8-tetrahydro-3H-1-thia-5a,8-diazabenzo[cd]azulen-9(6H)-one]: 1 to 10 nM; for `COC(=O)[C@@H]1CN2C(=O)COc3c(-c4cn[nH]c4)sc(c32)C(=O)N1` [Compound 53, Methyl (S)-5,9-dioxo-2-(1H-pyrazol-4-yl)-4,5,6,7,8,9-hexahydro-3-oxa-1-thia-5a,8-diazabenzo[cd]azulene-7-carboxylate]: 1 to 10 nM. For the compound `CC(C)(O)C[C@H]1CN2CC(F)(F)Cc3c(-c4cn[nH]c4)sc(c32)C(=O)N1` [Compound 132, (S)-4,4-difluoro-7-(2-hydroxy-2-methylpropyl)-2-(1H-pyrazol-4-yl)-4,5,7,8-tetrahydro-3H-1-thia-5a,8-diazabenzo[cd]azulen-9(6H)-one], the IC50 under setting [1] is under 1 nM. Still for that read-out and setting: with `COC1CN(C[C@H]2CN3CC(F)(F)Cc4c(-c5cn[nH]c5)sc(c43)C(=O)N2)C1` [Compound 141, (S)-4,4-difluoro-7-((3-methoxyazetidin-1-yl)methyl)-2-(1H-pyrazol-4-yl)-4,5,7,8-tetrahydro-3H-1-thia-5a,8-diazabenzo[cd]azulen-9(6H)-one] the figure was 1 to 10 nM; with `CC1(C)NC(=O)c2sc(-c3ccncn3)c3c2N1CCCN3` [Compound 1, 5,5-dimethyl-1-(pyrimidin-4-yl)-4,5,6,7,8,9-hexahydro-3H-2-thia-4,5a,9-triazabenzo[cd]azulen-3-one], under 1 nM.
